Results taken from patent US5208223A, “Phosphocholine derivative inhibitors of phospholipase A2” (American Cyanamid Company, priority 1992, dated 1993).
Where a name gives a salt, the structure may show the parent alone. Read-outs that look alike come from different tables or passages of the source.

Legend:
Assay type in all cases: biochemical
porcine pancreatic PLA2 [1] = biological target: T1, porcine pancreatic PLA2 (Sus scrofa, UniProt P00592); test: MHPLA2 assay: in vitro porcine pancreatic phospholipase A2, mixed micelle design, [s]=10 μm
T1 construct: purchased Sigma
T1 sequence (P00592 23-146): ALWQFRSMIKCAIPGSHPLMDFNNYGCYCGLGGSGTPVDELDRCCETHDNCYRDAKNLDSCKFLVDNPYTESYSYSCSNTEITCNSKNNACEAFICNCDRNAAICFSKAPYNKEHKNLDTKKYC
Procedure, shortened: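 Compounds dried with 10 μM 1-stearyl-2-[3H]-arachidonyl-PC substrate in mixed micelles (0.1M tris-HCl pH 9.0, 10 mM CaCl2, 10 mM Na taurocholate). Reaction started by adding enzyme and run 15 min at 37°C, then stopped with TCA. Released [3H]-arachidonate separated by TLC or column and counted by scintillation.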

porcine pancreatic PLA2 [2] = biological target: T1, porcine pancreatic PLA2; test: PLA2 assay: in vitro porcine pancreatic phospholipase A2, preincubation of drug+enzyme, substrate 2 nM; details: preincubation, subs. con. 2; for inhibition at 25 µg/mL: dose 25 μ/ml; for IC50: read-out: IC50 (converted)
Procedure, shortened: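 Porcine pancreatic PLA2 acting on 2 nM radiolabeled arachidonyl-phosphatidylcholine in mixed micelles (0.1 M Tris-HCl pH 9.0, 10 mM CaCl2, 10 mM Na taurocholate), 15 min at 37 °C with preincubation of drug and enzyme. Stopped with TCA; released 3H-arachidonate extracted, separated by TLC or column, counted by scintillation.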

porcine pancreatic PLA2 [3] = biological target: T1, porcine pancreatic PLA2; test: HPLA2 assay: in vitro porcine pancreatic phospholipase A2, preincubation design, [s]=10 μm
Protocol: Phospholipase A2 activity was measured by a radiochemical assay in which labeled synthetic phosphatidylcholine substrate is converted by porcine pancreatic PLA2 to free radiolabeled arachidonate and lyso PC. Radiolabeled arachidonate is extracted from the reaction mixture and separated from unreacted substrate by column chromatography or TLC. Radioactivity (cpm) in samples is quantitated by liquid scintillation counting. Specific details are as follows:
Labeled substrate(1-stearyl-2-^3 H-arachidonylphosphatidylcholine; Amersham, sp. act. 84 (uCi/mmole, 0.025 to 0.2 uCi/assay tube and unlabeled substrates (Avanti), in sufficient quantity to give 20,000 cpm to 50,000 cpm and 10 μM to 1,000 μM final concentration/assay tube are dried under a stream of nitrogen. The PLA2 and mPLA2 assays utilized a […] substrate concentration. The mHPLA2 and HPLA2 assays (vida infra) utilized a 10 μM substrate concentration and the SmPLA2 assay utilized a substrate concentration ranging from 100 to 1000 μm. The substrate is then redissolved in 0.1M tris-HCl buffer, pH 9.0 containing 10 mM CaCl2 and 10 mM Na taurocholate detergent. The mixture is sonicated in a Kontes Sonifier to yield a homogeneous dispersion. The "mixed" micellar substrate is clear. An aliquot is reserved for a cpm count (total substrate). The total reaction volume is 500 μL; siliconized glassware or plasticware is used throughout. Enzyme (Sigma, sp. act.>690 U/mg protein and preferably 900 U/mg protein) is diluted 1:750 or 1:1000 in 0.1M tris-HCl buffer, pH 9.0 (without Ca^++ and detergent). Enzyme dilution depends on substrate concentration and required enzyme concentration.
The substrate in buffer is kept on ice until the reaction is started. The reaction is started by adding 10 μL of diluted enzyme solution to 490 μL of micellar substrate solution. Samples are incubated in a 37° C. water bath for 15 minutes with gentle mixing. The reaction is terminated by the addition of 100 μL of 1M fresh trichloroacetic acid (TCA) solution and chilling the tubes on ice for 30 minutes.
Samples (600 μL) are extracted with 3 ml CHCl3 /MeOH (2:1) for thin layer chromatography or in hexane/ether (9:1) for column chromatography. The phases are separated by gentle centrifugation at 700 rpm×5'. The organic phase is recovered.
Labeled arachidonate extracted with CHCl3 /MeOH is separated on silica gel G TLC plates (Analtech). Twenty μL of a 2 mg/ml internal standard solution of arachidonic acid (Sigma) is combined with 2-3 ml of the organic phase. The entire mixture is dried under nitrogen and redissolved in 50 μL of CHCl3 /MeOH (2:1). A 20 μL sample is counted in 10 ml of Beckman Redi-solv HP and spotted on silica gel G plates. […] Plates are developed in a glass chamber for 1-11/2 hours, air dried, and the spots visualized in an iodine vapor chamber. Standards of phosphatidylcholine, lyso PC, and arachidonic acid (Sigma) are made as 2 mg/ml stocks in CHCl3 /MeOH (2:1) and spotted on plates. Spots corresponding to arachidonate and phospholipid are scraped and counted in 10 ml Beckman Redi-Solv HP scintillation fluid.
Samples are extracted with hexane/ether and the upper organic phase recovered. An aliquot is applied to a Silicar CC4 (Malincrodt) column. Columns are prepared using 1 ml of a 1:1 slurry of silicar CC4 in hexane/ether in a Pasteur pipet (approx. 2 cm height). Columns are rinsed with 500 μL of hexane/ether before adding the sample (300-600 μL) to the column. Columns are eluted with a total of 6 ml of hexane/ether. The 6 ml sample is counted in 10 ml of Beckman Redi-Solv HP scintillation fluid.
or the phospholipase A2 assay, compounds are prepared as 1 mg/ml stock solutions in MeOH and diluted appropriately in PBS.

porcine pancreatic PLA2 [4] = biological target: T1, porcine pancreatic PLA2; test: MPLA2 assay: in vitro porcine pancreatic phospholipase A2, mixed micelle design, substrate 2 nM; details: for inhibition at 25 µg/mL: dose 25 μ/ml
Procedure, shortened: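 Radiochemical PLA2 assay, mixed-micelle design: compound dried under N2 with 1-stearyl-2-[3H]-arachidonyl-PC substrate (2 nM) in 0.1M Tris-HCl pH 9.0, 10 mM CaCl2, 10 mM Na taurocholate. Reaction started with enzyme, 15 min at 37° C, stopped with TCA; released [3H]-arachidonate extracted, separated by TLC or column, counted by scintillation.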

[5] = dose 25 μ/ml, subs. con. 10, read-out: % Inh.
[6] = dose 10 μ/ml, read-out: % Inh. Avg.
[7] = dose 10 μ/ml, subs. con. 10, read-out: % Inh. Avg.
[8] = dose 20 μ/ml, subs. con. 10, read-out: % Inh. Avg.
[9] = dose 50 μ/ml, subs. con. 10, read-out: % Inh. Avg.
[10] = dose 10 μ/ml, subs. con. 10, read-out: % Inh.
[11] = dose 20 μ/ml, subs. con. 10, read-out: % Inh.
[12] = dose 50 μ/ml, subs. con. 10, read-out: % Inh.

For `CCCCCCCCCCCCCCCCOC[C@@H](COP(=O)([O-])OCC[N+](C)(C)C)OP(=O)(OC)OCCCCCCCCCCCCCCCC` (single isomer, unassigned) [3,5,8,10-Tetraoxa-4,9-diphosphahexacosan-1-aminium, 7-[(hexa], the “% Inh.” value (porcine pancreatic PLA2 [1]; dose 25 μ/ml, subs. con. 10) was 9%, the “% Inh. Avg.” value (porcine pancreatic PLA2 [2]; dose 10 μ/ml) was 25% and the “% Inh. Avg.” value (porcine pancreatic PLA2 [2]; dose 20 μ/ml) was 39%. For the same compound, the “% Inh. Avg.” value (porcine pancreatic PLA2 [3]; dose 10 μ/ml, subs. con. 10) was 18%, the “% Inh. Avg.” value (porcine pancreatic PLA2 [3]; dose 20 μ/ml, subs. con. 10) was 12% and the “% Inh. Avg.” value (porcine pancreatic PLA2 [3]; dose 50 μ/ml, subs. con. 10) was 25%.

With `CCCCCCCCCCCCCCCCOCC(COP(=O)([O-])OCC[N+](C)(C)C)OP(=O)(O)OCCCCCCCCCCCCCCCC` (single isomer, unassigned; more polar) [3,5,8,10-Tetraoxa-4,9-diphosphahexacosan-1-aminium, 7-[(hexadecyloxy)methyl]-4,9-dihydroxy-N,N,N-trimethylhydroxide, 4-(inner salt), 4,9-dioxide, more polar isomer] the inhibition at 25 µg/mL (porcine pancreatic PLA2 [1]; [5]) was 1%, the inhibition at 10 µg/mL (porcine pancreatic PLA2 [2]; [6]) was 27% and the inhibition at 25 µg/mL (porcine pancreatic PLA2 [2]; read-out: % Inh.) was 91%. It also gave an IC50 (porcine pancreatic PLA2 [2]) of 3.18 µM, an inhibition at 10 µg/mL (porcine pancreatic PLA2 [3]; [7]) of 18% and an inhibition at 20 µg/mL (porcine pancreatic PLA2 [3]; [8]) of 22%. The inhibition at 50 µg/mL (porcine pancreatic PLA2 [3]; [9]) was 32%.

Work on `CCCCCCCCCCCCCCCCOCC(COP(=O)([O-])OCC[N+](C)(C)C)C[S+]([O-])CCCCCCCCCCCCCCCC` (stereo not drawn) [7-[(Hexadecylsulfinyl)methyl]-4-hydroxy-N,N,N-trimethyl-3,5,9-trioxa-4-phosphapentacosan-1-aminium, hydroxide, inner salt, 4-oxide] yielded an inhibition at 10 µg/mL (porcine pancreatic PLA2 [1]; [10]) of 3%, an inhibition at 20 µg/mL (porcine pancreatic PLA2 [1]; dose 20 μ/ml, subs. con. 10) of 22% and an inhibition at 25 µg/mL (porcine pancreatic PLA2 [1]; [5]) of 68%. It also gave an inhibition at 10 µg/mL (porcine pancreatic PLA2 [4]; dose 10 μ/ml, subs. con. 2, read-out: % Inh.) of 71%, an inhibition at 20 µg/mL (porcine pancreatic PLA2 [4]; dose 20 μ/ml, subs. con. 2, read-out: % Inh.) of 84% and an inhibition at 25 µg/mL (porcine pancreatic PLA2 [4]; subs. con. 2, read-out: % Inh.) of 98%. The IC50 (porcine pancreatic PLA2 [4]; subs. con. 2) was 3.86 µM, the “% Inh.” value (porcine pancreatic PLA2 [2]; dose 10 μ/ml) was 88% and the inhibition at 10 µg/mL (porcine pancreatic PLA2 [2]; [6]) was 66%. The inhibition at 20 µg/mL (porcine pancreatic PLA2 [2]; dose 20 μ/ml, read-out: % Inh.) was 93%, the IC50 (porcine pancreatic PLA2 [2]) was 1.86 µM and the inhibition at 10 µg/mL (porcine pancreatic PLA2 [3]; [10]) was 27%. For the same compound, the inhibition at 10 µg/mL (porcine pancreatic PLA2 [3]; [7]) was 22%, the inhibition at 20 µg/mL (porcine pancreatic PLA2 [3]; [11]) was 33% and the inhibition at 20 µg/mL (porcine pancreatic PLA2 [3]; [8]) was 33%. The inhibition at 50 µg/mL (porcine pancreatic PLA2 [3]; [12]) was 36% and the inhibition at 50 µg/mL (porcine pancreatic PLA2 [3]; [9]) was 42%.

`CCCCCCCCCCCCCCCCOCC(COP(=O)([O-])OCC[N+](C)(C)C)OP(=O)(O)OCCCCCCCCCCCCCCCC` (stereo not drawn) [3,5,8,10-Tetraoxa-4,9-diphosphahexacosan-1-aminium, 7-[(hexa] [3,5,8,10-Tetraoxa-4,9-diphosphahexacosan-1-aminium, 7-[(hexadecyloxy)methyl]-4,9-dihydroxy-N,N,N-trimethyl-hydroxide, 4-(inner salt), 4,9-dioxide] was tested, and the “% Inh.” value (porcine pancreatic PLA2 [3]; dose 10 μ/ml, subs. con. 10) was “STIM”.

For `CCCCCCCCCCCCCCCCOCC(COP(=O)([O-])OCC[N+](C)(C)C)OP(=O)(O)OCCCCCCCCCCCCCCCC` (stereo not drawn) [3,5,8,10-Tetraoxa-4,9-diphosphahexacosan-1-aminium, 7-[(hexadecyloxy)methyl]-4,9-dihydroxy-N,N,N-trimethyl-, hydroxide, 4-inner salt), 4,9-dioxide], the inhibition at 20 µg/mL (porcine pancreatic PLA2 [3]; [11]) was 0% and the inhibition at 50 µg/mL (porcine pancreatic PLA2 [3]; [12]) was 0%.

`CCCCCCCCCCCCCCCCOC[C@@H](COP(=O)([O-])OCC[N+](C)(C)C)OP(=O)(OC)OCCCCCCCCCCCCCCCC` (single isomer, unassigned) showed an inhibition at 10 µg/mL (porcine pancreatic PLA2 [2]; [6]) of 29%, an inhibition at 20 µg/mL (porcine pancreatic PLA2 [2]; dose 20 μ/ml, read-out: % Inh. Avg.) of 26% and an inhibition at 10 µg/mL (porcine pancreatic PLA2 [3]; [7]) of 22%. It also gave an inhibition at 20 µg/mL (porcine pancreatic PLA2 [3]; [8]) of 18% and an inhibition at 50 µg/mL (porcine pancreatic PLA2 [3]; [9]) of 23%.

In the case of `CCCCCCCCCCCCCCCCOC[C@H](COP(=O)([O-])OCC[N+](C)(C)C)OP(=O)(OC)OCCCCCCCCCCCCCCCC` (single isomer, unassigned), the inhibition at 25 µg/mL (porcine pancreatic PLA2 [1]; [5]) is reported as 7%, the inhibition at 25 µg/mL (porcine pancreatic PLA2 [4]; subs. con. 2, read-out: % Inh.) is reported as 93% and the inhibition at 25 µg/mL (porcine pancreatic PLA2 [2]; read-out: % Inh.) is reported as 93%. It also gave an IC50 (porcine pancreatic PLA2 [2]) of 2.5 µM, an inhibition at 10 µg/mL (porcine pancreatic PLA2 [3]; [7]) of 17% and an inhibition at 20 µg/mL (porcine pancreatic PLA2 [3]; [8]) of 21%. It also gave an inhibition at 50 µg/mL (porcine pancreatic PLA2 [3]; [9]) of 30%.
